The text below walks through data of patent US4649153A, “5,6-Dihydro-4H-cyclopenta(b)thiophene-6-carboxylic acids, preparation processes and medicines containing them” (Lipha, Lyonnaise Industrielle Pharmaceutique, priority 1984, dated 1987).

“Also recorded” adds a separate entry of the source. Read-outs that look alike come from different tables or passages of the source. Where only a bound is given, the exact number is not on record here.

In series [1] the test system is UV erythema. The experiment in a line: Protection from UV erythema (Winter et al.), early inflammation. The conditions noted are these: Cavia porcellus, read-out: Protection from UV ED 50. It is filed as in vivo, guinea pigs. The method, then: White guinea pigs having their backs freshly depilated were radiated individually by exposure to the radiation of a UV lamp placed 25 cm above the animal's back for 1 min 30 sec. The zone to be radiated was delimited by a covering pierced with circular holes wrapping each animal. The erythema was visually marked 2 hours after exposure to radiation. The guinea pigs were treated orally with the test products 1 hour after exposure to UV.

The test system of series [2] is carrageenan edema. Description: Carrageenan edema test (Winter et al.), rat back paw, anti-inflammatory activity. It is filed as in vivo, rats (male). To be noted: for ED30: Rattus norvegicus, read-out: Carrageenan edema ED 30. The procedure: Edema of a back paw was caused in male rats by subplantar injection of a 1% suspension of carrageenan in apyrogenic physiological solute. Measurement of the edema by plethysmography occurred 3 hours later. The products studied were administered orally 1 hour before the carrageenan injection. The protection conferred by the treatment was determined by calculation of ED 30 (dose moderating the edema 30% in relation to untreated animals).
Background: Carrageenan injected into the paw causes an acute inflammation.

Series [3] in a line: Acute oral toxicity (LD50), mortality recorded 2 weeks later. To be noted: mouse, in vivo, Table III, Swiss mice. The procedure: Lethal doses 50 (LD50) were determined by oral administration in Swiss mice. Mortality was recorded 2 weeks later.
Setting [4] is: Table II, oral, 1 hour after UV exposure, guinea pigs, dose reducing erythema 50%.
Setting [5] is: Table II, oral, 1 hour before carrageenan, rats, dose moderating edema 30%.
The mark [6] stands for this setting: Table I, oral, 1 hour after UV exposure, guinea pigs, erythema marked 2 hours after exposure, dose reducing erythema 50%.
The mark [7] stands for this setting: Table I, oral, 1 hour before carrageenan, rats, edema measured 3 hours later, dose moderating edema 30%.

Consider `O=C(c1ccccc1)c1cc2c(s1)CCC2C(=O)O` (stereo not shown) [2-Benzoyl-5,6-dihydro-4H cyclopenta[b]thiophene-4-carboxylic, reference compound], for which the ED50 in series [1] (setting [4]) was greater than 50 mg/kg. Moreover, in series [2] (setting [5]), the ED30 is greater than 30 mg/kg.

With `Cc1sc2c(c1C(=O)c1cccs1)CCC2C(=O)O` (stereo not shown) [Example 10, 2-Methyl 3-(2-thenoyl)-5,6-dihydro-4H-cyclopenta[b]thiophene-6-carboxylic acid], the ED50 in series [1] (setting [6]) turned out to be 0.2 mg/kg. In addition, the LD50 – broadly, the dose at which mortality reaches 50% – at 336 h in series [3] came to 275 mg/kg. For the same compound, the ED30 in series [2] (setting [7]) came to 3 mg/kg.

With `Cc1sc2c(c1C(=O)c1ccc(N(C)C)cc1)CCC2C(=O)O` (stereo not shown) [Example 27, 3-(4-Dimethylaminobenzoyl)-2-methyl-5,6-dihydro-4H-cyclopenta[b]thiophene-6-carboxylic acid], in series [1] (setting [6]), the ED50 worked out at 0.6 mg/kg. Further, the ED30 in series [2] (setting [7]) came out at 1.3 mg/kg.

For the compound `CC(C)Cc1sc2c(c1C(=O)c1ccccc1)CCC2C(=O)O` (stereo not shown) [Example 32, 3-Benzoyl-2-isobutyl-5,6-dihydro-4H-cyclopenta[b]thiophene-6-carboxylic acid], the ED50 in series [1] (setting [6]) is greater than 50 mg/kg. Moreover, in series [2] (setting [7]), the ED30 was greater than 50 mg/kg.

As to `CCc1sc2c(c1C(=O)c1ccccc1)CCC2C(=O)O` (stereo not shown) [Example 38, 3-Benzoyl-2-ethyl-5,6-dihydro-4H-cyclopenta[b]thiophene-6-carboxylic acid], the ED50 in series [1] (setting [6]) is 2 mg/kg. Further, the ED30 in series [2] (setting [7]) is 6 mg/kg.

On to `Cc1sc2c(c1C(=O)c1ccc(F)cc1)CCC2C(=O)O` (stereo not shown) [Example 21, 3-(4-Fluorobenzoyl)-2-methyl-5,6-dihydro-4H-cyclopenta[b]thiophene-6-carboxylic acid], for which the ED50 in series [1] (setting [6]) worked out at 0.4 mg/kg. Further, in series [2] (setting [7]), the ED30 stood at 2.4 mg/kg.

In the case of `Cc1sc2c(c1C(=O)c1ccccc1)C(C(=O)O)CC2` (stereo not shown) [3-benzoyl-2-methyl-5,6-dihydro-4H-cyclopenta[b]thiophene-4-carboxylic acid, reference compound], the ED50 in series [1] (setting [4]) was greater than 50 mg/kg. Moreover, the ED30 in series [2] (setting [5]) was greater than 30 mg/kg.

On to `COc1ccc2c(c1)c(CC(=O)O)c(C)n2C(=O)c1ccc(Cl)cc1` [INDOMETHACIN, 1-(4-chlorobenzoyl)-5-methoxy-2-methyl-3-indolylacetic acid, reference compound], for which the ED50 in series [1] (po) came out at 4.5 mg/kg. The same compound yielded a median lethal dose (LD50) at 336 h in series [3] of 25 mg/kg. For the same compound, the ED30 in series [2] (po) came to 5 mg/kg.

`Cc1sc2c(c1C(=O)c1ccccc1)CCC2C(=O)O` (stereo not shown) [Example 7, 3-Benzoyl-2-methyl-5,6-dihydro-4H-cyclopenta[b]thiophene-6-carboxylic acid]: the ED50 in series [1] (setting [6]) and in series [1] (setting [4]) was 0.4 mg/kg throughout. Moreover, the LD50 at 336 h in series [3] was 275 mg/kg. Besides, the ED30 in series [2] (setting [7]) was found to be 0.7 mg/kg. Further, in series [2] (setting [5]), the “Carrageenan edema ED 30” value came to 0.7 mg/kg. Also, in series [2] (carrageenan edema, UV protection and Randall and Selitto tests), the “activity compared with Indomethacin and with isomeric 4-carboxylic acids (in words)” value was “greater than that of Indomethacin; also recorded: considerably greater than that of 5,6-dihydro-4H-cyclopenta[b]thiophene-4-carboxylic isomeric acids”.

In the case of `CC(C)Cc1sc2c(c1C(=O)c1ccccc1)C(C(=O)O)CC2` (stereo not shown) [3-Benzoyl-2-isobutyl-5,6-dihydro-4Hcyclopenta[b]thio-phene-4-carboxylic acid, reference compound], the ED50 in series [1] (setting [4]) is greater than 50 mg/kg. In addition, the ED30 in series [2] (setting [5]) is greater than 30 mg/kg.

Turning to `CC(C)Cc1cc2c(s1)CCC2C(=O)O` (stereo not shown) [2-Isobutyl-5,6-dihydro-4H cyclopenta[b]thiophene-4-carboxylic, reference compound], in series [1] (setting [4]), the ED50 is greater than 50 mg/kg. Moreover, the ED30 in series [2] (setting [5]) is greater than 30 mg/kg.
